According to ChEMBL document CHEMBL1146585, “Copacamphane, picrotoxane, and alloaromadendrane sesquiterpene glycosides and phenolic glycosides from Dendrobium moniliforme” (J Nat Prod, 2003):
Activity calls are given as the source filed them. No cut-off for these calls is given here.

Legend:
[1] = Cytotoxicity against T cell; assay type: cell-based
[2] = tested on: B-cell; test: Immunoregulatory activity assessed as stimulation of B cell proliferation at 10 uM; assay type: functional, cell-based
[3] = tested on: T-cell; test: Immunoregulatory activity assessed as inhibition of T cell proliferation at 0.1 uM; assay type: functional, cell-based

| Structure (SMILES) | Activity [1] | Activity [2] | Activity [3] |
| --- | --- | --- | --- |
| CC(C)[C@H]1[C@@H]2OC(=O)[C@H]1[C@H]1C[C@H](O[C@@H]3O[C@H](CO)[C@@H](O)[C@H](O)[C@H]3O)[C@]3(CO3)[C@@]1(C)[C@H]2O [DENDROMONILISIDE C] | Non-toxic | Active | Active |
| COc1cc(CO)ccc1O[C@@H]1O[C@H](CO)[C@@H](O)[C@H](O)[C@H]1O [VANILLOLOSIDE] | Non-toxic | Active | Active |
| CC(C)(O)[C@H]1C[C@H](O[C@@H]2O[C@H](CO)[C@@H](O)[C@H](O)[C@H]2O)[C@@]2(C)[C@@H]3CC[C@]2(C)C(=O)[C@@H]31 [DENDROMONILISIDE A] | Non-toxic | Active | Active |
